# Laboratory results taken from patent US20160038468A1 (priority 2013, published 2016).
# Like-named read-outs stand apart in the source and are kept apart here.
# Key:
# Assay type in all cases: cell-based
# [1] = test system: Gardnerella vaginalis; assay: Agar dilution MIC (CLSI), Gardnerella vaginalis vaginal isolates; details: for Number of strains with indicated MIC: 100 samples
# [2] = test system: Atopobium vaginae; assay: Agar dilution MIC (CLSI), Atopobium vaginae vaginal isolates; details: for Number of strains with indicated MIC: 62 samples
# [3] = test system: Prevotella timonensis; assay: Agar dilution MIC (CLSI), Prevotella timonensis vaginal isolates; details: for MIC: read-out: Minimal Inhibitory Concentration (MIC); for Number of strains with indicated MIC: 33 samples
# [4] = test system: Anaerococcus tetradius; assay: Agar dilution MIC (CLSI), Anaerococcus tetradius vaginal isolates; details: for MIC: read-out: Minimal Inhibitory Concentration (MIC); for Number of strains with indicated MIC: 21 samples
# [5] = Gardnerella vaginalis, # tested 107
# [6] = Fannyhessea vaginae, # tested 62
# [7] = Hoylesella timonensis, # tested 33
# [8] = Anaerococcus tetradius, # tested 21
compound,measurement,setting,value
CCC[C@@H]1C[C@@H](C(=O)N[C@@H]([C@H]2O[C@H](SC)[C@H](O)[C@@H](O)[C@H]2O)[C@H](C)Cl)N(C)C1 [Clindamycin],MIC Range,[1]; # tested 107,0.015 to 0.5 µg/mL
same,MIC50,[1]; [5],0.125 µg/mL
same,MIC90,[1]; [5],0.25 µg/mL
same,Number of strains with indicated MIC,[1]; MIC 0.015 μg/ml,1
same,Number of strains with indicated MIC,[1]; MIC 0.03 μg/ml,11
same,Number of strains with indicated MIC,[1]; MIC 0.06 μg/ml,25
same,Number of strains with indicated MIC,[1]; MIC […] μg/ml,1
same,MIC,"[2]; Fannyhessea vaginae, read-out: Minimal Inhibitory Concentration (MIC)",> 128 µg/mL
same,MIC50,[2]; [6],0.06 µg/mL
same,MIC90,[2]; [6],0.25 µg/mL
same,Number of strains with indicated MIC,[2]; MIC 0.03 μg/ml,28
same,Number of strains with indicated MIC,[2]; MIC 0.06 μg/ml,10
same,Number of strains with indicated MIC,[2]; MIC 8 μg/ml,1
same,Number of strains with indicated MIC,[2]; MIC 16 μg/ml,1
same,Number of strains with indicated MIC,[2]; MIC >[…],1
same,Number of strains with indicated MIC,[2]; MIC […] μg/ml,1
same,MIC,"[3]; Hoylesella timonensis, isolate 601080 5",0.03 µg/mL
same,MIC,"[3]; Hoylesella timonensis, isolate 601088 15",0.03 µg/mL
same,MIC,"[3]; Hoylesella timonensis, isolate 601093 24",0.03 µg/mL
same,MIC,"[3]; Hoylesella timonensis, isolate 601097 S",0.03 µg/mL
same,MIC,"[3]; Hoylesella timonensis, isolate 601098 B",0.03 µg/mL
same,MIC,"[3]; Hoylesella timonensis, isolate 601167 13",0.06 µg/mL
same,MIC,"[3]; Hoylesella timonensis, isolate 601170 13",0.03 µg/mL
same,MIC,"[3]; Hoylesella timonensis, isolate 601178 19",0.03 µg/mL
same,MIC,"[3]; Hoylesella timonensis, isolate 601194 9B",0.03 µg/mL
same,MIC,"[3]; Hoylesella timonensis, isolate 601245 16",0.03 µg/mL
same,MIC,"[3]; Hoylesella timonensis, isolate 601252 B",0.03 µg/mL
same,MIC,"[3]; Hoylesella timonensis, isolate 601255 17",0.03 µg/mL
same,MIC,"[3]; Hoylesella timonensis, isolate 601266 18",0.03 µg/mL
same,MIC,"[3]; Hoylesella timonensis, isolate 601278 12",0.06 µg/mL
same,MIC,"[3]; Hoylesella timonensis, isolate 601281 22",0.03 µg/mL
same,MIC,"[3]; Hoylesella timonensis, isolate 601287 H",0.03 µg/mL
same,MIC,"[3]; Hoylesella timonensis, isolate 601311 B",0.03 µg/mL
same,MIC,"[3]; Hoylesella timonensis, isolate 601388 S",0.03 µg/mL
same,MIC,"[3]; Hoylesella timonensis, isolate 601429 11",128 µg/mL
same,MIC,"[3]; Hoylesella timonensis, isolate 601459 21",0.03 µg/mL
same,MIC,[3]; Hoylesella timonensis,> 128 µg/mL
same,MIC50,[3]; [7],0.03 µg/mL
same,MIC90,[3]; [7],> 128 µg/mL
same,Number of strains with indicated MIC,[3]; MIC 0.03 μg/ml,17
same,Number of strains with indicated MIC,[3]; MIC 0.06 μg/ml,2
same,Number of strains with indicated MIC,[3]; MIC >[…],13
same,Number of strains with indicated MIC,[3]; MIC […],1
same,Minimal Inhibitory Concentration (MIC),[3]; isolate 301212 10,>128 µg/mL
same,Minimal Inhibitory Concentration (MIC),[3]; isolate 601175 J,>128 µg/mL
same,Minimal Inhibitory Concentration (MIC),[3]; isolate 601214 A,>128 µg/mL
same,Minimal Inhibitory Concentration (MIC),[3]; isolate 601226 C,>128 µg/mL
same,Minimal Inhibitory Concentration (MIC),[3]; isolate 601234 B,>128 µg/mL
same,Minimal Inhibitory Concentration (MIC),[3]; isolate 601293 13,>128 µg/mL
same,Minimal Inhibitory Concentration (MIC),[3]; isolate 601367 E,>128 µg/mL
same,Minimal Inhibitory Concentration (MIC),[3]; isolate 601370 13,>128 µg/mL
same,Minimal Inhibitory Concentration (MIC),[3]; isolate 601401 J,>128 µg/mL
same,Minimal Inhibitory Concentration (MIC),[3]; isolate 601411 S,>128 µg/mL
same,Minimal Inhibitory Concentration (MIC),[3]; isolate 601414 O,>128 µg/mL
same,Minimal Inhibitory Concentration (MIC),[3]; isolate 601422 39,>128 µg/mL
same,Susceptible,"[3]; number (%) of isolates, # tested 33",19 (58) μg/ml
same,Resistant,"[3]; number (%) of isolates, # tested 33, resistance: rifaximin >32, metronidazole >32, clindamycin >8 μg/ml",14 (42) μg/ml
same,MIC,"[4]; Anaerococcus tetradius, isolate 601098V T",2 µg/mL
same,MIC,"[4]; Anaerococcus tetradius, isolate 601103V 21",2 µg/mL
same,MIC,"[4]; Anaerococcus tetradius, isolate 601175V I",1 µg/mL
same,MIC,"[4]; Anaerococcus tetradius, isolate 601202V 11",2 µg/mL
same,MIC,"[4]; Anaerococcus tetradius, isolate 601212V 14",2 µg/mL
same,MIC,"[4]; Anaerococcus tetradius, isolate 601221V 12",0.03 µg/mL
same,MIC,"[4]; Anaerococcus tetradius, isolate 601222V 15",0.25 µg/mL
same,MIC,"[4]; Anaerococcus tetradius, isolate 601242V 17",4 µg/mL
same,MIC,"[4]; Anaerococcus tetradius, isolate 601256V 9",2 µg/mL
same,MIC,"[4]; Anaerococcus tetradius, isolate 601305V J",2 µg/mL
same,MIC,"[4]; Anaerococcus tetradius, isolate 601326V H",2 µg/mL
same,MIC,"[4]; Anaerococcus tetradius, isolate 601340V 25",2 µg/mL
same,MIC,"[4]; Anaerococcus tetradius, isolate 601342V N",2 µg/mL
same,MIC,"[4]; Anaerococcus tetradius, isolate 601368V 42",2 µg/mL
same,MIC,"[4]; Anaerococcus tetradius, isolate 601369V 12",2 µg/mL
same,MIC,"[4]; Anaerococcus tetradius, isolate 601401V T",8 µg/mL
same,MIC,"[4]; Anaerococcus tetradius, isolate 601429V 15",2 µg/mL
same,MIC,"[4]; Anaerococcus tetradius, isolate 601450V 22",1 µg/mL
same,MIC,[4]; Anaerococcus tetradius,> 128 µg/mL
same,MIC50,[4]; [8],2 µg/mL
same,MIC90,[4]; [8],> 128 µg/mL
same,Number of strains with indicated MIC,[4]; MIC 0.03 μg/ml,1
same,Number of strains with indicated MIC,[4]; MIC 8 μg/ml,1
same,Number of strains with indicated MIC,[4]; MIC >[…],3
same,Number of strains with indicated MIC,[4]; MIC […],1
same,Minimal Inhibitory Concentration (MIC),[4]; isolate 601379V 25,>128 µg/mL
same,Minimal Inhibitory Concentration (MIC),[4]; isolate 602375V 22,>128 µg/mL
